The values below come from article PMC11053944, “FRET Assays for the Identification of C. albicans HSP90-Sba1 and Human HSP90α-p23 Binding Inhibitors” (Pharmaceuticals, 2024).

Entries after “also recorded” stand apart in the source; their conditions may differ. Where two headings read alike, the source gives them in different places.

Test [1] addresses T1, human HSP90α-mNeonGreen–p23-mScarlet-I binding (Homo sapiens, UniProt P07900, E47A).
T1 construct: made in house; host or cells: E. coli Rosetta2(DE3) pLysS
Nature of the test: FRET characterization of model inhibitors and ATP on human HSP90α-p23 binding. Here is the method: (§1) In this investigation, 1 µM HSP90-mNeonGreen was incubated with 2 µM Sba1-mScarlet-I in reaction buffer containing 5 mM ATP either alone (UC) or with the addition of 20 µM Sba1. As a negative control, samples containing 20 µM bovine serum albumin (BSA) were used.
(§2) FRET experiments were carried out in 384-well microtiter plates (Art. No. 3766 Corning, NY, USA, or Art. No. 781906, Greiner Bio-One GmbH, Frickenhausen, Germany) containing a final volume of 20 µL and measured with a microplate reader Infinite M200Pro (Tecan, Männedorf, Switzerland). The fluorescence was measured in three channels: excitation (ex.): 488 nm/emission (em.): 525 nm (mNeonGreen fluorescence), ex.: 561 nm/em.: 610 nm (mScarlet-I fluorescence) and the FRET channel ex.: 488 nm/em.: 610 nm. The excitation and emission bandwidths were set to 9 and 20 nm, respectively. Experiments for the determination of the equilibrium dissociation constants were performed with a filter-based microplate reader Infinite F200Pro (Tecan, Männedorf, Switzerland). The fluorescence was measured in three channels using the following filters: ex.: 485 ± 20 nm/em.: 535 ± 20 nm (mNeonGreen channel), ex.: 535 ± 20 nm/em.: 612 ± 10 nm (mScarlet-I channel) and the FRET channel ex.: 485 ± 20 nm/em.: 612 ± 10 nm. FRET emission (EmFRET) was calculated according to Song et al. 2011 [81]:(1) EmFRET=FLDA−x×FLDD−(y×FLAA) where FLDA is the fluorescence signal of the FRET channel and FLDD and FLAA are fluorescence signals from the mNeonGreen and mScarlet-I channels, respectively. The correction factors x and y were calculated as follows:(2) x=FLDA/FLDD for samples containing only the donor fluorophore or fluorescent fusion proteins with mNeonGreen and (3) y=FLDA/FLAA for samples containing only the acceptor fluorophore or fluorescent fusion proteins with mScarlet-I in the same concentration as samples containing both the donor and acceptor.
All experiments were carried out in reaction buffer (40 mM HEPES/KOH pH 7.5, 20 mM KCl, 5 mM MgCl2, 20 mM Na2MoO4, Triton-X 100 0.1%). HEPES and KCl were purchased from AppliChem, Darmstadt, Germany. KOH and MgCl2 were obtained from VWR Chemicals, Darmstadt, Germany. Na2MoO4 was from Merck, Darmstadt, Germany. Triton-X 100 was purchased from Serva, Heidelberg, Germany.
For C. albicans Sba1 competition experiments for HSP90-mNeonGreen–Sba1-mScarlet-I binding, 1 µM HSP90-mNeonGreen and 1 µM Sba1-mScarlet-I were incubated with varying concentrations of Sba1 in a range of 0–25,000 nM (lowest non-zero concentration 12 nM) in reaction buffer containing 5 mM ATP. The experiment was performed twice in nonaplicates. For human p23 competition experiments for HSP90α-mNeonGreen–p23-mScarlet-I binding, 1 µM HSP90α-mNeonGreen and 1 µM p23-mScarlet-I were incubated with varying concentrations of p23 in a range of 0–50 000 nM (lowest non-zero concentration 23 nM) in reaction buffer containing 5 mM ATP. The experiment was performed twice in hexaplicates. […] The experiment was performed thrice in triplicates. […] The IC50,rel values were calculated using the equation log (inhibitor) vs. response-variable slope (four parameters) in GraphPad Prism 5. Ki values for inhibition of HSP90-mNeonGreen–Sba1-mScarlet-I/p23-mScarlet-I binding by non-labeled Sba1/p23 were calculated with One Site—Fit Ki in GraphPad Prism 5. […] The EC50,rel values were calculated using the log (agonist) vs. response-variable slope (four parameters) equation in GraphPad Prism 5.

For test [2], the target named is T2, C. albicans HSP90-mNeonGreen–Sba1-mScarlet-I binding (Candida albicans, UniProt P46598, E36A).
T2 construct: made in house; host or cells: E. coli BL21(DE3)
The procedure:
as §1, §2
All experiments were carried out in reaction buffer (40 mM HEPES/KOH pH 7.5, 20 mM KCl, 5 mM MgCl2, 20 mM Na2MoO4, Triton-X 100 0.1%). HEPES and KCl were purchased from AppliChem, Darmstadt, Germany. […]

The next test deals with HSP90 - Sba1/p23 binding. The conditions noted are these: according to literature, cited from earlier work.
For a further test, the target named is T3, human HSP90α–p23 binding (Homo sapiens, UniProt P07900).
T3 construct: made in house; host or cells: E. coli Rosetta2(DE3) pLysS
Nature of the test: FRET inhibitor screening assay, human HSP90α-p23 binding. The conditions noted are these: 10 or 100 µM, triplicates, 3 mM ATP, 1% DMSO, 15 min 37 °C. The text has this: We used the Z′ factor (Z′) to optimize the FRET assays for screening purposes. Z′ represents a simple statistical parameter for the quality assessment and optimization of HTS assays and screening assays in general. It is a measure that determines the degree of signal separation between binding and non-binding data sets. Calculation of the Z′ factor is based on the standard deviation of the individual data sets as well as their general signal separation. Values ≥ 0.5 can be classified as excellent for screening purposes. […] When the fluorescent fusion proteins of HSP90 and co-chaperones bind to each other, FRET occurs between donor and acceptor fluorophores, and the sensitized emission (EmFRET) signal increases. Consequently, the fluorescence intensity of the donor decreases (FLDD). […] We defined the ‘hit threshold’ as a decrease in readout signal of more than 3 standard deviations (SDs) from the mean signal of the binding control. This constitutes a common threshold for hit identification in HTS campaigns.
The excitation and emission bandwidths were set to 9 and 20 nm, respectively. Experiments for the determination of the equilibrium dissociation constants were performed with a filter-based microplate reader Infinite F200Pro (Tecan, Männedorf, Switzerland). […] The correction factors x and y were calculated as follows:(2) x=FLDA/FLDD for samples containing only the donor fluorophore or fluorescent fusion proteins with mNeonGreen and (3) y=FLDA/FLAA for samples containing only the acceptor fluorophore or fluorescent fusion proteins with mScarlet-I in the same concentration as samples containing both the donor and acceptor.
For screening for the identification of ATP-competitive C. albicans HSP90 and HSP90-Sba1 binding inhibitors, 10 µL of HSP90-mNeonGreen (2 µM) and Sba1-mScarlet-I (4 µM) in HEPES buffer (40 mM HEPES/KOH pH 7.5, 20 mM KCl) was mixed with 10 µL of 200 µM compound solution in 2x reaction buffer (40 mM HEPES/KOH pH 7.5, 20 mM KCl, 10 mM MgCl2, 40 mM Na2MoO4, Triton-X 100 0.2%), 6 mM ATP, 2% DMSO, resulting ultimately in constant HSP90-mNeonGreen concentrations of 1 µM and Sba1-mScarlet-I 2 µM in reaction buffer. Samples for binding control (3 mM ATP, final concentration) and non-binding control (no ATP) were prepared in the same manner without compounds. The samples were incubated for 15 min at 30 °C prior to measurement. The assay for the human HSP90α–p23 binding inhibitor identification was performed analogously, with the exception that samples were incubated for 15 min at 37 °C prior to measurement. Since binding samples show both a high EmFRET as well as a reduction in donor emission (FLDD), we calculated the quotient (EmFRET/FLDD) to derive an improved signal separation and robustness. The nucleoside-mimetics library was obtained from Enamine (catalog No. NML-320-X-20, Enamine Ltd., Kyiv, Ukraine). Z′ and Z factors were calculated based on Zhang et al..

In test [3] the target is T4, C. albicans HSP90–Sba1 binding (Candida albicans, UniProt P46598).
T4 construct: made in house; host or cells: E. coli BL21(DE3)
T4 sequence (P46598 whole entry): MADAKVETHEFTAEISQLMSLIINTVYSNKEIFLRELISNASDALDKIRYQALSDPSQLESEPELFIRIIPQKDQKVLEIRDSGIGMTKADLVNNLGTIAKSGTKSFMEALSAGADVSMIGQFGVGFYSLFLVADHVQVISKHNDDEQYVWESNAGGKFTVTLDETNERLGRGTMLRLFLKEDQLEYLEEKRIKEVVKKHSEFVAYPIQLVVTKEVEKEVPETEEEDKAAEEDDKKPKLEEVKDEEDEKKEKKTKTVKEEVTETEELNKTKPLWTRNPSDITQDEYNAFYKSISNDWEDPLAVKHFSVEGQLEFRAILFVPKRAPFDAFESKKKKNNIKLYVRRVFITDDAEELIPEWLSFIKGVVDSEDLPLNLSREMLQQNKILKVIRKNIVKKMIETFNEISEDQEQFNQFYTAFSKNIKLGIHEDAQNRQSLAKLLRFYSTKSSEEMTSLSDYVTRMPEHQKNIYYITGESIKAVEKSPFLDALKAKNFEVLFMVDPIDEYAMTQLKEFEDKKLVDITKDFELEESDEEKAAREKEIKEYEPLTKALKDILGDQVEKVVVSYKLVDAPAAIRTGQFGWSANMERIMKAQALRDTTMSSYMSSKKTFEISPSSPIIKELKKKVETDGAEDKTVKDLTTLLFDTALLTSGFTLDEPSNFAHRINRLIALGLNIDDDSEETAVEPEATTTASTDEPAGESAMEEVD
Nature of the test: FRET inhibitor screening assay, C. albicans HSP90-Sba1 binding. The conditions noted are these: 10 or 100 µM (Sba1 20 µM), triplicates, 3 mM ATP, 1% DMSO, 15 min 30 °C.
Description: We used the Z′ factor (Z′) to optimize the FRET assays for screening purposes. Z′ represents a simple statistical parameter for the quality assessment and optimization of HTS assays and screening assays in general. It is a measure that determines the degree of signal separation between binding and non-binding data sets. Calculation of the Z′ factor is based on the standard deviation of the individual data sets as well as their general signal separation. Values ≥ 0.5 can be classified as excellent for screening purposes. […] When the fluorescent fusion proteins of HSP90 and co-chaperones bind to each other, FRET occurs between donor and acceptor fluorophores, and the sensitized emission (EmFRET) signal increases. Consequently, the fluorescence intensity of the donor decreases (FLDD). […] To obtain an informative Z′ value, we calculated it based on at least three independent experiments amounting to 144 samples for both binding and non-binding control data sets (Figure 4B,E). […] We defined the ‘hit threshold’ as a decrease in readout signal of more than 3 standard deviations (SDs) from the mean signal of the binding control. This constitutes a common threshold for hit identification in HTS campaigns.
as §2
For screening for the identification of ATP-competitive C. albicans HSP90 and HSP90-Sba1 binding inhibitors, 10 µL of HSP90-mNeonGreen ([…]) in HEPES buffer (40 mM HEPES/KOH pH 7.5, 20 mM KCl) was mixed with 10 µL of 200 µM compound solution in 2x reaction buffer (40 mM HEPES/KOH pH 7.5, 20 mM KCl, 10 mM MgCl2, 40 mM Na2MoO4, Triton-X 100 0.2%), 6 mM ATP, 2% DMSO, resulting […] Samples for binding control (3 mM ATP, final concentration) and non-binding control (no ATP) were prepared in the same manner without compounds. The samples were incubated for 15 min at 30 °C prior to measurement.

Turning to `Nc1ncnc2c1ncn2[C@@H]1O[C@H](COP(=O)(O)OP(=O)(O)OP(=O)(O)O)[C@@H](O)[C@H]1O` [ATP], the “concentration at which maximum binding was reached” value in test [1] (1 µM HSP90αE47A-mNeonGreen, 2 µM p23-mScarlet-I) is reported as ~ 3 mM; in test [2] (1 µM HSP90E36A-mNeonGreen, 2 µM Sba1-mScarlet-I), ~ 3 mM. Further, the EC50 (as a rule, the concentration needed to bring the measured effect to its halfway point) in test [1] (1 µM donor, 2 µM acceptor, read-out: EC50,rel, influence on HSP90αE47A-mNeonGreen–p23-mScarlet-I binding) was determined as 210 ± 30 µM; in test [2] (1 µM donor, 2 µM acceptor, ATP 0–12,500 µM, read-out: EC50,rel, influence on HSP90E36A-mNeonGreen–Sba1-mScarlet-I binding), 220 ± 40 µM.
Turning to `CC1=C(O)C(=O)C=C2C1=CC=C1[C@@]2(C)CC[C@@]2(C)[C@@H]3C[C@](C)(C(=O)O)CC[C@]3(C)CC[C@]12C` [celastrol], the “Influence on p23/Sba1 binding” value in the test on HSP90 - Sba1/p23 binding was “No and not influence”. The “hit identification (EmFRET/FLDD decrease of more than 3 SDs from binding control mean)” value (on human HSP90α–p23 binding; in test [3]) was “show no influence” in each case.
Take `CCNC(=O)c1noc(-c2cc(C(C)C)c(O)cc2O)c1-c1ccc(CN2CCOCC2)cc1` [NVP-AUY922, luminespib]: the “Influence on p23/Sba1 binding” value in the test on HSP90 - Sba1/p23 binding was “Yes”. In addition, the results for the “hit identification (EmFRET/FLDD decrease of more than 3 SDs from binding control mean)” value in test [3] and in test [3] (listed as luminespib) were “reliably identified as hits” and “reliably identified as disrupting HSP90-Sba1 binding”, respectively.
Regarding `COc1cc(C2Oc3cc([C@H]4Oc5cc(O)cc(O)c5C(=O)[C@@H]4O)ccc3OC2CO)ccc1O` (some centres unmarked) [silibinin], the “hit identification (EmFRET/FLDD decrease of more than 3 SDs from binding control mean)” value at human HSP90α–p23 binding was “show no influence”; in test [3], “do not show an effect; also recorded: show no influence”.
Regarding `O=C(O[C@@H]1Cc2c(O)cc(O)cc2O[C@@H]1c1cc(O)c(O)c(O)c1)c1cc(O)c(O)c(O)c1` [EGCG, (−)-Epigallocatechin-3-gallate], in the test with HSP90 - Sba1/p23 binding, the “Influence on p23/Sba1 binding” value is listed as “Yes”. Besides, the “hit identification (EmFRET/FLDD decrease of more than 3 SDs from binding control mean)” value is reported as “strong decrease in FRET emission; also recorded: pan-assay interfering compound (PAIN)” on human HSP90α–p23 binding and “pan-assay interfering compound (PAIN)” in test [3].
Turning to `C[C@@H]1C[C@H]2O[C@@H]2/C=C\C=C\C(=O)Cc2c(Cl)c(O)cc(O)c2C(=O)O1` [radicicol], the “Influence on p23/Sba1 binding” value in the test with HSP90 - Sba1/p23 binding is “Yes”. The “hit identification (EmFRET/FLDD decrease of more than 3 SDs from binding control mean)” value in test [3] was “reliably identified as disrupting HSP90-Sba1 binding; also recorded: reliably identified as hits”.
In the case of `COc1cc2c(cc1OC)[C@@H]1C(=O)c3ccc4c(c3O[C@@H]1CO2)C=CC(C)(C)O4` [deguelin], the “hit identification (EmFRET/FLDD decrease of more than 3 SDs from binding control mean)” value at human HSP90α–p23 binding is given as “show no influence”; in test [3], “do not show an effect; also recorded: show no influence”.
As for `CC1=C(CO)C(=O)O[C@@H]([C@@H](C)[C@H]2CC[C@H]3[C@@H]4C[C@H]5O[C@]56[C@@H](O)C=CC(=O)[C@]6(C)[C@H]4CC[C@]23C)C1` [withaferin A], the “Influence on p23/Sba1 binding” value in the test on HSP90 - Sba1/p23 binding is “not influence”; in the test on HSP90 - Sba1/p23 binding (listed as Withaferin A), “No”. For the same compound, the “hit identification (EmFRET/FLDD decrease of more than 3 SDs from binding control mean)” value is given as “show no influence” at human HSP90α–p23 binding and “do not show an effect; also recorded: show no influence” in test [3].
